The values below come from article PMC11279401, “Inhibitory Effect of Selected Guaianolide and Germacranolide Sesquiterpene Lactones on Nitric Oxide Production” (Molecules, 2024).

The nature of data set [1]: Cytotoxicity assay (WST-1), viability of mouse peritoneal cells. The class given is cell-based. The settings on record: 10 µM compound, mouse peritoneal cells 1.0 × 10^6/mL, 24 h, read-out: Cell viability (O.D.) relative to untreated controls; for viability at 24 h, 10 µM: primary mouse peritoneal cells (macrophages). How it is done:
(§1) The tested compounds were dissolved in dimethyl sulfoxide (DMSO) to make stock solutions at a concentration of 50 mM, and then stored at −20 °C. Their biological activities were screened using a final concentration of 10 µM.
(§2) The animals were killed by cervical dislocation and injected intraperitoneally with 8 mL of sterile saline. Pooled peritoneal cells collected from the mice (n = 4–6 in individual experiments) were washed and re-suspended in a culture medium. The cell suspension was seeded onto 96-well round-bottom microplates (Costar, Corning, NY, USA). Final samples were supplemented to 100 µL volumes, containing 1–2 × 10^6 cells per well, depending on the assay. Cultures were maintained at 37 °C, 5% CO2 in a humidified incubator (Heraeus Holding GmbH, Hanau, Germany).
(§3) The viability of mouse peritoneal cells was determined using a colorimetric assay based on the cleavage of tetrazolium salt WST-1 by mitochondrial dehydrogenases in viable cells (Roche Diagnostics, Mannheim, Germany). The cells (1 × 10^6/mL) were cultured as described above. The viability of primary murine macrophages was tested in the presence of 10 µM of the respective test substance for […]. After the first 24 h of cultivation, WST-1 was added (10 µL), and the cells were kept in a Heraeus incubator at 37 °C for an additional 3 h. Triton X-100 (1%) was used as a common reference in the cytotoxicity assay. Optical density was evaluated at wavelengths of 450–690 nm.

Data set [2] concerns mouse peritoneal cells. The description is as above. The class given is cell-based. The settings on record: 10 µM compound, primary murine macrophages. How it is done:
as §1, §2, §3

Data set [3] relates to NO production by mouse peritoneal cells. Briefly: Nitric oxide assay (Griess), LPS + IFN-γ-activated mouse peritoneal cells. In kind it is cell-based. The conditions noted are these: 24 h; for IC50: (LPS + IFN-γ)-activated mouse peritoneal cells, concentrations 0.01–50.0 μM tested, read-out: Inhibition of nitric oxide production, IC50; for Effect on IFN-γ + LPS-activated NO production (in words): 10 µM screening, mouse peritoneal cells. On the procedure: The tested compounds were dissolved in dimethyl sulfoxide (DMSO) to make stock solutions at a concentration of 50 mM, and then stored at −20 °C. Their biological activities were screened using a final concentration of 10 µM. […] This concentration of DMSO was devoid of any effects in biological assays.
as §2, with “Germany). The complete RPMI-1640 culture medium (Sigma-Aldrich, St. Louis, MO, USA) contained 10% heat-inactivated fetal bovine serum, 2 mM L-glutamine, 50 µg/mL gentamicin, and 5 × 10^−5 M 2-mercaptoethanol (all Sigma-Aldrich).” for “Germany).”
High-output NO production was induced by a mixture of lipopolysaccharide (LPS from E. coli 0111:B4, 0.1 ng/mL; Sigma) and murine recombinant interferon-γ (IFN-γ, 5 ng/mL; R&D Systems, Minneapolis, MN, USA) in mouse peritoneal cells (2 × 10^6/mL). The tested compounds were applied concomitantly with both priming stimuli, and peritoneal macrophages were cultured for 24 h. The concentration of nitrites in the supernatants of the cell cultures was taken as a measure of NO production. It was detected in individual cell-free samples (50 µL) incubated for 5 min at ambient temperature with an aliquot of Griess reagent (1% sulfanilamide/0.1% naphtylendiamine/2.5% H3PO4). Absorbance at 540 nm was recorded using a microplate spectrophotometer (Tecan, Grödig, Austria). A nitrite calibration curve was used to convert absorbance values to µM of nitrite.
(In general: Griess reagent forms a coloured azo dye with nitrite.)

Data set [4] has as its system RAW264.7 macrophages. The conditions noted are these: cited from earlier work.
Data set [5] deals with polymorphonuclear lymphocytes. Also noted: method as in PMID 30653318. The settings on record: cited from earlier work.
Data set [6] deals with production of PGE2 by murine peritoneal cells. Briefly: Prostaglandin E2 assay (ELISA), LPS-stimulated murine peritoneal cells. The settings on record: 10 ng/mL LPS, 6 h, murine peritoneal cells 2.0 × 10^6/mL. The class given is cell-based, mouse. On the procedure: as §2, with “Germany). The complete RPMI-1640 culture medium (Sigma-Aldrich, St. Louis, MO, USA) contained 10% heat-inactivated fetal bovine serum, 2 mM L-glutamine, 50 µg/mL gentamicin, and 5 × 10^−5 M 2-mercaptoethanol (all Sigma-Aldrich).” for “Germany).”
(§4) The concentration of PGE2 was determined in the supernatants of cells cultured (2 × 10^6/mL) after the addition of 10 ng/mL LPS for an interval of 6 h. The levels of cytokines TNF-α, IL-1β, IL-6, and IL-10, and the chemokine RANTES were determined in the supernatants of cells cultured (2 × 10^6/mL) in the presence of 1 µg/mL LPS for an interval 21 h. The extent of PGE2 release and cytokine secretion was determined using enzyme-linked immune-absorbent assay (ELISA) kits according to the manufacturer’s instructions (R&D Systems, Minneapolis, MN, USA).
(In general: In an ELISA, binding on a coated surface is turned into a signal by an enzyme label.)

The subject of data set [7] is secretion of cytokines TNF-α, IL-1β, IL-6, IL-10 and chemokine RANTES by murine peritoneal cells. Description: Cytokine assays (ELISA), LPS-stimulated murine peritoneal cells. The class given is cell-based, mouse. The settings on record: 1 µg/mL LPS, 21 h, IL-6, IL-10, RANTES. How it is done:
as §2, with “Germany). The complete RPMI-1640 culture medium (Sigma-Aldrich, St. Louis, MO, USA) contained 10% heat-inactivated fetal bovine serum, 2 mM L-glutamine, 50 µg/mL gentamicin, and 5 × 10^−5 M 2-mercaptoethanol (all Sigma-Aldrich).” for “Germany).”
as §4

One may read the viability as a read-out of living cells in per cent, often relative to untreated cells.

Entries after “also recorded” stand apart in the source; their conditions may differ. Where two headings read alike, the source gives them in different places. Where only a bound is given, the exact number is not on record here.

On to `C=C(CO)C(=O)O[C@H]1CC(=C)[C@@H]2C[C@H](O)C(=C)[C@@H]2[C@H]2OC(=O)C(=C)[C@@H]21` [Compound 14, cynaropicrin], for which the viability at 24 h, 10 µM in data set [1] was approximately 50%. Moreover, in data set [2], the “Cytotoxicity / effect on cell viability (in words)” value (from here on “Cytotoxicity / effect”) is “cytotoxic; also recorded: remarkable cytotoxicity”. Moreover, the IC50 in data set [3] is 9.87 µM.

Turning to `CC1=CC(=O)C2=C(C)CC(OC3OC(CO)C(O)C(O)C3O)C3C(OC(=O)C3(C)O)C12` (stereo not drawn) [Compound 10, 11β-hydroxydeacetylmatricarin glucoside], the IC50 in data set [3] is more than 100 µM.

Consider `C=C1C[C@@H](O)[C@@H]2[C@H](OC(=O)[C@H]2C)[C@H]2[C@H](C)[C@@H](O)C[C@@H]12` [Compound 2, 8-epiisolippidiol], for which the IC50 in data set [3] was more than 100 µM.

`C=C1C(=O)O[C@@H]2/C=C(\C)CC/C=C(\C)CC[C@@H]12` [Compound 16, costunolide]: the viability at 24 h, 10 µM in data set [1] is approximately 50%. Also, in data set [2], the “Cytotoxicity / effect” value is on record as “moderate toxicity; also recorded: remarkable cytotoxicity”. Besides, the IC50 in data set [3] is 3.2 µM.

Regarding `C=C1CC(O)C2C(C)C(=O)OC2C2C1CC(OC1OC(CO)C(O)C(O)C1O)C2C` (stereo not shown) [Compound 5, 4,8-diepiisolippidiol glucoside], in data set [3], the IC50 is more than 100 µM.

On to eupatolide [Compound 17], for which, in data set [3], the “Effect on IFN-γ + LPS-activated NO production (in words)” value was “significant NO-inhibitory effect” and the IC50 came out at 4.38 µM. The IC50 in data set [4] (murine macrophage line RAW264.7, read-out: Inhibitory potency against NO production, concentration range) was 1.54 to 6.43 µM.

Consider `CC1=C2C(=O)C=C(CO)[C@@H]2[C@H]2OC(=O)[C@@H](C)[C@@H]2[C@@H](O)C1` [Compound 4, 11β,13-dihydrolactucin], for which, in data set [3], the IC50 was more than 100 µM.

For `C=C1C(=O)O[C@@H]2/C=C(\C)CC/C=C(\C)C[C@@H](OC(=O)/C(=C/CO)CO)[C@@H]12` [Compound 18, eupatoriopicrin], in data set [1], the viability at 10 µM is approximately 10%. Besides, the “Cytotoxicity / effect” value in data set [2] is recorded as “highly toxic; also recorded: remarkable cytotoxicity”. Further, the IC50 in data set [3] was 1.65 µM. Further, in data set [5], the “Concentration up to which not toxic” value is not above 2500 nM.

Take `C=C1C(=O)O[C@@H]2C[C@@H](C)[C@@H]3C=CC(=O)[C@@]3(C)[C@@H](O)[C@H]12` [Compound 15, helenalin]: the IC50 in data set [3] came to 0.74 µM.

On to `C=C1C(=O)O[C@@H]2[C@H]3C(CO)=CC(=O)C3=C(C)CC[C@@H]12` [Compound 13, 8-deoxylactucin], for which the “Cytotoxicity / effect” value in data set [2] is reported as “without any suppression of cell viability”. In addition, in data set [3], the “Effect on IFN-γ + LPS-activated NO production (in words)” value was “significant NO-inhibitory effect” and the IC50 is 2.81 µM. In data set [6], the “Effect on immune-activated production of PGE2 (in words)” value is “did not interfere”. Further, in data set [7], the “Effect on secretion of cytokines (in words)” value was “did not interfere”. For the same compound, the IC50 in data set [4] (RAW264.7 macrophages, read-out: Inhibition of nitric oxide production, IC50) is 13 µM.

Turning to `CC=C(C)C(=O)OC1(C)C(=O)OC2C=C(C)CCC=C(C)CCC(OC(C)=O)C21` (stereo not shown) [Compound 21, laserolide], in data set [2], the “Cytotoxicity / effect” value is “did not show any cytotoxicity”. For the same compound, the IC50 in data set [3] is 90.2 µM.

For the compound `CC1=CC(=O)C2=C(C)CCC3C(OC(=O)C3(C)OC3OC(CO)C(O)C(O)C3O)C12` (stereo not drawn) [Compound 9, 11β-hydroxyleukodin glucoside], in data set [3], the IC50 was more than 100 µM.

As for `C=C1C(=O)O[C@H]2[C@H]1CC/C(C)=C/CC[C@@]1(C)O[C@@H]21` [Compound 19, parthenolide], the viability at 24 h, 10 µM in data set [1] is 81.1 ± 6.34%. In data set [3], the “Effect on IFN-γ + LPS-activated NO production (in words)” value was “substantially decreased the production of NO” and the IC50 was found to be 2.79 µM.

For `C=C1C(=O)OC2C1CC(O)C(C)=CCCC1(C)OC21` (stereo not shown) [Compound 20, 9-hydroxyparthenolide], the viability at 10 µM in data set [1] turned out to be 77 ± 5.09%. For the same compound, in data set [3], the “Effect on IFN-γ + LPS-activated NO production (in words)” value was “substantially decreased the production of NO” and the IC50 was 5.64 µM.

With `CC1=C2C(=O)C=C(COC3OC(CO)C(O)C(O)C3O)C2C2OC(=O)C(C)C2CC1` (stereo not shown) [Compound 7, crepidiaside B], the IC50 in data set [3] is more than 100 µM.

As to `CC1=CC(=O)C2=C(C)CC(OC3OC(CO)C(O)C(O)C3O)C3C(C)C(=O)OC3C12` (stereo not shown) [Compound 6, deacetylmatricarin glucoside], in data set [3], the IC50 is more than 100 µM.

Turning to `CC1=CC(=O)C2=C(C)C[C@H](O)[C@@H]3[C@H](OC(=O)[C@H]3C)[C@@H]12` [Compound 3, deacetylmatricarin], the IC50 in data set [3] is more than 100 µM.

As to `C=C1C(=O)OC2C1CCC(C)(O)C1CC(OC3OC(CO)C(O)C(O)C3O)C(=C)C21` (stereo not shown) [Compound 12, ixerin D], the IC50 in data set [3] was more than 100 µM.

As for `C=C1CC(O)C2C(=C)C(=O)OC2C2C1CC(OC1OC(CO)C(O)C(O)C1O)C2C` (stereo not shown) [Compound 11, 11,13-dehydro-8-epiisolippidiol glucoside], in data set [3], the IC50 was more than 100 µM.

As to `C=C1C[C@@H](O)[C@@H]2[C@H](OC(=O)[C@H]2C)[C@H]2[C@H](C)C(=O)C[C@@H]12` [Compound 1, 8-epiisoamberboin], the “Cytotoxicity / effect” value in data set [2] is “without any suppression of cell viability”. Further, the “NO production relative to controls stimulated with IFN-γ + LPS” value in data set [3] (10 µM compound, mouse peritoneal cells 2.0 × 10^6/mL) is listed as “about 25%”. Further, in data set [3], the “Effect on IFN-γ + LPS-activated NO production (in words)” value is on record as “significant NO-inhibitory effect” and the IC50 was 23.8 µM.

For `C=C1C(O)CC2C(C)C(=O)OC2C2C(=C)C(OC3OC(CO)C(O)C(O)C3O)CC12` (stereo not shown) [Compound 8, ixerin F], the IC50 in data set [3] was more than 100 µM.
